Reference: article PMC2981816, “Oxalyl retro-peptide gelators. Synthesis, gelation properties and stereochemical effects” (Beilstein Journal of Organic Chemistry, 2010)
Values belong to the molecule of their own block, whether it stands above or below them.

Experiments:
Format in all cases: physicochemical
[1] = Gelation test: gelator effectiveness (Geff) and minimal gelation concentration in solvents and solvent mixtures; design: key: sol.: soluble; ins.: insoluble; cr.: crystallization; [A]: gel/sol mixture; conditions: max. volume immobilized by 10 mg gelator, Table 3
Method: (§1) Gelation observed for selected gelator–solvent pairs is expressed by gelator effectiveness (Geff, mL) corresponding to the maximal volume of solvent that could be immobilized by 10 mg of the gelator (Table 1). […] However, 3a and 5a also gelled small to moderate volumes of EtOH and rac-2-octanol, whilst Leu incorporating 1a formed gels with the more lipophilic solvents, decalin and tetralin. […] Apparently, the retro-peptides incorporating aliphatic and aromatic amino acids are less versatile gelators compared to retro-peptides containing […] amino acid fragments. The latter points to the importance of intermolecular lipophilic interactions for the stabilization of gel assemblies being stronger in the case of identical amino acids either lipophilic or aromatic, and weaker for mixed aromatic-lipophilic amino acid fragments present in the gelator molecule.

[2] = as above; design: key to Gelator effectiveness (Geff): sol.: soluble; ins.: insoluble; cr.: crystallization; [A]: gel/sol mixture; conditions: for Gelation effectiveness (Geff): Table 3
Method: as §1

[3] = as above
[4] = Concentration-dependent 1H NMR of toluene-d8 gel samples (self-assembly saturation point)
Excerpt: In the first case the oxalamide NH and Leu-NH protons were downfield shifted by 1.6 and 1.8 ppm, respectively, for a gelator concentration increase from 0.001–0.1 mol dm^−3. […] The monitored protons of (S,S)-1b are more strongly downfield shifted than the corresponding protons of (S,R)-1b for the same concentration range. Similar trends of NH and C*H concentration induced shifts are observed for (S,S)-1b and its racemate (S,S)-1b/(R,R)-1b toluene-d8 gels (Figure 6). Again the magnitudes of the NH and C*H concentration induced shifts are higher for the (S,S)-1b than for the racemate gel. […]
If the racemate were organized in the conglomerate as separate enantiomeric (S,S)-1b and (R,R)-1b assemblies, the magnitudes of the concentration induced shifts should be similar to those measured the for (S,S)-1b assemblies. […]
The discontinuous concentration induced shift curves obtained for (S,R)-1b diasteroisomer may indicate the presence of different assemblies at lower and higher gelator concentrations. It appears that the first saturation point is reached at a concentration around 0.03 mol dm^-3 and the second at 0.12 mol dm^−3, the latter corresponding nicely to the experimentally determined MGC of 0.116 mol dm^−3. […]

[5] = Gelation test: gelator effectiveness (Geff) and minimal gelation concentration in solvents and solvent mixtures; design: key: sol.: soluble; ins.: insoluble; cr.: crystalline; [A]: gel/sol mixture; conditions: max. volume immobilized by 10 mg gelator, Table 3
Method: as §1

[6] = max. volume immobilized by 10 mg gelator, H2O/DMF mixture, given as volume + volume
[7] = max. volume immobilized by 10 mg gelator, H2O/DMSO mixture, given as volume + volume
[8] = max. volume immobilized by 10 mg gelator, tetralin
[9] = max. volume immobilized by 10 mg gelator, CH2Cl2, Table 2
[10] = max. volume immobilized by 10 mg gelator, CH3CN, Table 2
[11] = max. volume immobilized by 10 mg gelator, H2O/DMF mixture, given as volume + volume, Table 2
[12] = max. volume immobilized by 10 mg gelator, H2O/DMSO mixture, given as volume + volume, Table 2
[13] = max. volume immobilized by 10 mg gelator, H2O, Table 2
[14] = max. volume immobilized by 10 mg gelator, THF, Table 2
[15] = max. volume immobilized by 10 mg gelator, decalin, Table 2
[16] = max. volume immobilized by 10 mg gelator, p-xylene, Table 2
[17] = max. volume immobilized by 10 mg gelator, tetralin, Table 2
[18] = max. volume immobilized by 10 mg gelator, toluene, Table 2

Gelation effectiveness (Geff) ([1]; CH2Cl2): ins. | Gelation effectiveness (Geff) ([1]; CH3CN): ins. | Gelation effectiveness (Geff) ([1]; EtOH): ins. | Gelation effectiveness (Geff) ([1]; H2O): ins. | Gelation effectiveness (Geff) ([1]; THF): ins. | Gelation effectiveness (Geff) ([1]; p-xylene): ins. | Gelation effectiveness (Geff) ([1]; toluene): ins. | Gelation effectiveness (Geff) ([1]; ±2-octanol): ins. | Gelation effectiveness (Geff) [2, 6]: 2.7+3.0 mL | Gelation effectiveness (Geff) [2, 7]: 1.3+1.6 mL | Gelation effectiveness (Geff) [2, 8]: 2.0 mL
Molecule: NC(=O)[C@H](Cc1ccccc1)NC(=O)[C@H](Cc1ccccc1)NC(=O)C(=O)N[C@@H](Cc1ccccc1)C(=O)N[C@@H](Cc1ccccc1)C(N)=O [5c, bis(PhePheNH2)]

solubility in water [3]: insoluble
Molecule: O=C(N[C@@H](Cc1ccccc1)C(=O)N[C@@H](Cc1ccccc1)C(=O)O)C(=O)N[C@@H](Cc1ccccc1)C(=O)N[C@@H](Cc1ccccc1)C(=O)O [5a, (S,S)-N,N'-Oxalyl-bis(phenylalanyl-phenylalanine)]

Gelator effectiveness (Geff) [2, 9]: sol. | Gelator effectiveness (Geff) [2, 10]: cr | Gelator effectiveness (Geff) [2, 11]: cr. | Gelator effectiveness (Geff) [2, 12]: 0.2+0.5 mL | Gelator effectiveness (Geff) [2, 13]: ins. | Gelator effectiveness (Geff) [2, 14]: sol. | Gelator effectiveness (Geff) [2, 15]: 4.8 mL | Gelator effectiveness (Geff) [2, 16]: 1.1 mL | Gelator effectiveness (Geff) [2, 17]: 0.9 mL | Gelator effectiveness (Geff) [2, 18]: 1.25 mL
Molecule: COC(=O)[C@H](CC(C)C)NC(=O)[C@@H](NC(=O)C(=O)N[C@H](C(=O)N[C@@H](CC(C)C)C(=O)OC)c1ccccc1)c1ccccc1 [4b, (S,S)-N,N'-Oxalyl-bis(phenylglycyl-leucine methyl ester)]

The next lines start with the molecule.

Molecule: (S,R)-N,N'-Oxalyl-bis(leucyl-leucine methyl ester) [(S,R)-1b]
second saturation point of concentration induced 1H NMR shifts ([4]; toluene-d8): 0.12 mol dm^−3 | saturation point of concentration induced 1H NMR shifts (self-assembly equilibrium) ([4]; toluene-d8, concentration range 0.001–0.1 mol dm^−3, first or only saturation point): around 0.03 mol dm^−3 | Gelator effectiveness (Geff) [2, 9]: sol. | Gelator effectiveness (Geff) [2, 10]: cr. | Gelator effectiveness (Geff) ([2]; max. volume immobilized by 10 mg gelator, EtOH, Table 2): cr. | Gelator effectiveness (Geff) [2, 11]: 11.5+11.7 mL | Gelator effectiveness (Geff) [2, 12]: 9.7+10.0 mL | Gelator effectiveness (Geff) [2, 13]: ins. | Gelator effectiveness (Geff) [2, 14]: cr. | Gelator effectiveness (Geff) [2, 15]: 0.8 mL | Gelator effectiveness (Geff) [2, 16]: 0.5 mL | Gelator effectiveness (Geff) [2, 17]: 0.2 mL | Gelator effectiveness (Geff) [2, 18]: 0.15 mL | Gelator effectiveness (Geff) ([2]; max. volume immobilized by 10 mg gelator, ±2-octanol, Table 2): cr. | minimal gelation concentration (MGC) ([2]; toluene, experimentally determined): 0.116 mol dm^−3

Molecule: bis(Leu)oxalamide [reference compound]
Gelator effectiveness (Geff) ([2]; max. volume immobilized by 10 mg gelator, CH2Cl2 + DMSO (footnote a), given as volume + volume, Table 1): 1.5+0.05^a mL | Gelator effectiveness (Geff) ([2]; max. volume immobilized by 10 mg gelator, CH3CN, Table 1): 0.95 mL | Gelator effectiveness (Geff) ([2]; max. volume immobilized by 10 mg gelator, EtOH, Table 1): 1.5 mL | Gelator effectiveness (Geff) ([2]; max. volume immobilized by 10 mg gelator, H2O/DMF mixture, given as volume + volume, Table 1): cr. | Gelator effectiveness (Geff) ([2]; max. volume immobilized by 10 mg gelator, H2O/DMSO mixture, given as volume + volume, Table 1): 0.8+0.4 mL | Gelator effectiveness (Geff) ([2]; max. volume immobilized by 10 mg gelator, THF, Table 1): 0.4 mL | Gelator effectiveness (Geff) ([2]; max. volume immobilized by 10 mg gelator, decalin, Table 1): 0.2 mL | Gelator effectiveness (Geff) ([2]; max. volume immobilized by 10 mg gelator, p-xylene, Table 1): 2.45 mL | Gelator effectiveness (Geff) ([2]; max. volume immobilized by 10 mg gelator, tetralin, Table 1): 3.0 mL | Gelator effectiveness (Geff) ([2]; max. volume immobilized by 10 mg gelator, toluene, Table 1): 1.95 mL | Gelator effectiveness (Geff) ([2]; max. volume immobilized by 10 mg gelator, ±2-octanol, Table 1): 10.95 mL | Gelator effectiveness (Geff) ([2]; maximal volume of solvent immobilized by 10 mg of gelator, solvent H2O, Table 1): 0.4 mL

Molecule: NC(=O)[C@@H](NC(=O)[C@@H](NC(=O)C(=O)N[C@H](C(=O)N[C@H](C(N)=O)c1ccccc1)c1ccccc1)c1ccccc1)c1ccccc1 [3c, bis(PhgPhgNH2)]
Gelation effectiveness (Geff) ([1]; CH2Cl2): ins. | Gelation effectiveness (Geff) ([1]; CH3CN): ins. | Gelation effectiveness (Geff) ([1]; EtOH): ins. | Gelation effectiveness (Geff) ([1]; H2O): ins. | Gelation effectiveness (Geff) ([1]; THF): ins. | Gelation effectiveness (Geff) ([1]; p-xylene): ins. | Gelation effectiveness (Geff) ([1]; tetralin): ins. | Gelation effectiveness (Geff) ([1]; toluene): ins. | Gelation effectiveness (Geff) ([1]; ±2-octanol): ins. | Gelation effectiveness (Geff) ([5]; H2O/DMF mixture, given as volume + volume): cr. | Gelation effectiveness (Geff) ([5]; H2O/DMSO mixture, given as volume + volume): cr.

Molecule: CC(C)C[C@H](NC(=O)[C@H](CC(C)C)NC(=O)C(=O)N[C@@H](CC(C)C)C(=O)N[C@@H](CC(C)C)C(N)=O)C(N)=O [(S,S)-1c, bis(LeuLeuNH2)]
Gelation effectiveness (Geff) ([1]; CH3CN): ins. | Gelation effectiveness (Geff) ([1]; H2O): ins. | Gelation effectiveness (Geff) ([1]; THF): ins. | Gelation effectiveness (Geff) ([1]; p-xylene): ins. | Gelation effectiveness (Geff) ([1]; ±2-octanol): ins. | Gelation effectiveness (Geff) ([2]; max. volume immobilized by 10 mg gelator, CH2Cl2 + DMSO (footnote a), volume + volume): 1.05+0.2^a mL | Gelation effectiveness (Geff) [2, 6]: 0.45+0.75 mL | Gelation effectiveness (Geff) [2, 7]: 0.55+1.4 mL | Gelation effectiveness (Geff) [2, 8]: 7.3 mL | Gelation effectiveness (Geff) ([2]; max. volume immobilized by 10 mg gelator, toluene + DMSO (footnote a), volume + volume): 1.05+0.2^a mL | Gelation effectiveness (Geff) ([5]; EtOH): cr.

Molecule: O=C(N[C@H](C(=O)N[C@H](C(=O)O)c1ccccc1)c1ccccc1)C(=O)N[C@H](C(=O)N[C@H](C(=O)O)c1ccccc1)c1ccccc1 [3a, (S,S)-N,N'-Oxalyl-bis(phenylglycyl-phenylglycine)]
solubility in water [3]: insoluble
